# Test results reported in patent US20100087411A1, “SUBSTITUTED SAPOGENINS AND THEIR USE” (Phytopharm PLC, priority 2000, published 2010).
# System: m2 receptor
# Test: Expression of m2 receptors on CHO cells transfected with DNA for the m2 receptor (tritiated QNB binding)
# Type: cell-based
# Design: key: Active: “active” means increase over the control; Inactive: “inactive” means same effect as control
# Details: DMSO control, range of final concentrations
# Source text: Substituted sapogenins of the present invention have also been tested for activity in a number of in-vitro assays. The assays/experiments that were considered of key importance in determining possible activity in the elevation of membrane bound receptor numbers were as follows: • Chinese hamster ovary (CHO) cells transfected with the a DNA fragment coding for a muscarinic receptor. The cell line used for the majority of the experiments was a cell line expressing the m2 receptor. The methods and the results of these experiments are now described in turn.
# The effects of various compounds on the expression of m2 receptors on CHO cells transfected with DNA for the m2 receptor were investigated. Receptor numbers were assayed using tritiated QNB binding and subtracting non-specific binding. Compounds were dissolved in DMSO and DMSO was used as a control. Compounds were tested at a range of final concentrations. Compounds were also tested in the presence and absence of tamoxifen to try to distinguish an oestrogen receptor mediated mechanism The results are summarised in the Table I below.
smiles,measurement,value
"C[C@@H]1CC[C@@]2(OC1)O[C@H]1C[C@H]3[C@@H]4CC[C@@H]5CC(F)(F)CC[C@]5(C)[C@H]4CC[C@]3(C)[C@H]1[C@@H]2C [3,3-difluoro-5β,20α,22α,25R-spirostane]",Effect on receptor expression,Active
"C[C@@H]1CC[C@@]2(OC1)O[C@H]1C[C@H]3[C@@H]4CC[C@@H]5C[C@H](N)CC[C@]5(C)[C@H]4CC[C@]3(C)[C@H]1[C@@H]2C [3α-amino-5β,20α,22α,25R-spirostane]",Effect on receptor expression,Active
"CC1CCC2(OC1)OC1CC3C4CCC5CC(N=[N+]=[N-])CCC5(C)C4CCC3(C)C1C2C (stereo not drawn) [3α-azido-5β,20α,22α,25R-spirostane]",Effect on receptor expression,Active
"C[C@@H]1CC[C@@]2(OC1)O[C@H]1C[C@H]3[C@@H]4CC[C@H]5C[C@H](F)CC[C@]5(C)[C@H]4CC[C@]3(C)[C@H]1[C@@H]2C [3α-fluoro-5α,20α,22α,25R-spirostane]",Effect on receptor expression,Inactive
"C[C@@H]1CC[C@@]2(OC1)O[C@H]1C[C@H]3[C@@H]4CC[C@@H]5C[C@H](NS(C)(=O)=O)CC[C@]5(C)[C@H]4CC[C@]3(C)[C@H]1[C@@H]2C [3α-methylsulphonylamino-5β,20α,22α,25R-spirostane]",Effect on receptor expression,Active
"C[C@@H]1CC[C@@]2(OC1)O[C@H]1C[C@H]3[C@@H]4CC[C@@H]5C[C@@H](F)CC[C@]5(C)[C@H]4CC[C@]3(C)[C@H]1[C@@H]2C [3β-fluoro-5β,20α,22α,25R-spirostane]",Effect on receptor expression,Active
"C[C@H]1[C@H]2[C@H](C[C@H]3[C@@H]4CC[C@@H]5C[C@@H](O)CC[C@]5(C)[C@H]4CC[C@]23C)O[C@]12CCC(C)(C)CO2 [25-methyl-5β,20α,22α-spirostane-3β-ol]",Effect on receptor expression,Active
